Source: patent US10688111B2, “Liquid formulations of compounds active at sulfonylurea receptors” (Biogen Chesapeake LLC, priority 2008, dated 2020)

Test: pH after 50-fold dilution of glibenclamide 1 mg/ml concentrate into Hartmann's or NaCl
Format: physicochemical
Settings: 1 mg/ml in PEG/Ethanol/Buffer (4/1/5)
Experimental: This was found even for experiments in which the concentration of buffer was reduced to 5 mM. In order to determine the final pH of diluted solutions resulting from high pH solutions having high concentrations of SUR-active compounds, measurements of the pH of glibenclamide solutions at various levels of dilution were made. […]

COc1ccc(Cl)cc1C(=O)NCCc1ccc(S(=O)(=O)NC(=O)NC2CCCCC2)cc1 [Glibenclamide, N-p-(2-[5-Chloro-2-methoxybenzamido]ethyl) benzenesulfonyl-N′-cyclohexylurea]
pH after a 50-fold Dilution (Diethanolamine 5 mM pH 8, into Hartmann's pH 6.48 (Expt1)): 6.71
pH after a 50-fold Dilution (Diethanolamine 5 mM pH 8, into Hartmann's pH 6.60): 7.99
pH after a 50-fold Dilution (Diethanolamine 5 mM pH 8, into NaCl pH 4.59): 7.27
pH after a 50-fold Dilution (Diethanolamine 5 mM pH 8, into NaCl pH 6.82): 8.32
pH after a 50-fold Dilution (Diethanolamine 5 mM pH 8.5, into Hartmann's pH 6.48, Expt 2): 6.82
pH after a 50-fold Dilution (Diethanolamine 5 mM pH 9, into Hartmann's pH 6.48 (Expt1)): 7.54
pH after a 50-fold Dilution (Diethanolamine 5 mM pH 9, into Hartmann's pH 6.48, Expt 2): 7.29
pH after a 50-fold Dilution (Diethanolamine 5 mM pH 9, into NaCl pH 6.82): 8.65
pH after a 50-fold Dilution (Diethanolamine 5 mM pH 9.5, into Hartmann's pH 6.48 (Expt1)): 6.73
pH after a 50-fold Dilution (Diethanolamine 5 mM pH 9.5, into Hartmann's pH 6.48, Expt 2): 8.37
pH after a 50-fold Dilution (Diethanolamine 5 mM pH 9.5, into Hartmann's pH 6.60): 8.85
pH after a 50-fold Dilution (Diethanolamine 5 mM pH 9.5, into NaCl pH 4.59): 8.72
pH after a 50-fold Dilution (Diethanolamine 5 mM pH 9.5, into NaCl pH 6.82): 8.88
pH after a 50-fold Dilution (Diethanolamine 5 mM pH 10, into Hartmann's pH 6.48): 8.46
pH after a 50-fold Dilution (Diethanolamine 10 mM pH 9, into Hartmann's pH 6.48): 8.38
pH after a 50-fold Dilution (Diethanolamine 10 mM pH 9, into NaCl pH 4.59): 8.46
pH after a 50-fold Dilution (Diethanolamine 10 mM pH 10, into Hartmann's pH 6.48): 8.88
pH after a 50-fold Dilution (Diethanolamine 10 mM pH 10, into NaCl pH 6.82): 9.31
pH after a 50-fold Dilution (Meglumine 5 mM pH 8, into Hartmann's pH 6.48 (Expt1)): 6.66
pH after a 50-fold Dilution (Meglumine 5 mM pH 8, into Hartmann's pH 6.60): 6.55
pH after a 50-fold Dilution (Meglumine 5 mM pH 8, into NaCl pH 4.59): 6.56
pH after a 50-fold Dilution (Meglumine 5 mM pH 8, into NaCl pH 6.82): 8.21
pH after a 50-fold Dilution (Meglumine 5 mM pH 8.5, into Hartmann's pH 6.48, Expt 2): 6.64
pH after a 50-fold Dilution (Meglumine 5 mM pH 9, into Hartmann's pH 6.48 (Expt1)): 6.8
pH after a 50-fold Dilution (Meglumine 5 mM pH 9, into Hartmann's pH 6.48, Expt 2): 6.96
pH after a 50-fold Dilution (Meglumine 5 mM pH 9, into NaCl pH 6.82): 8.40
pH after a 50-fold Dilution (Meglumine 5 mM pH 9.5, into Hartmann's pH 6.48 (Expt1)): 6.93
pH after a 50-fold Dilution (Meglumine 5 mM pH 9.5, into Hartmann's pH 6.48, Expt 2): 7.68
pH after a 50-fold Dilution (Meglumine 5 mM pH 9.5, into Hartmann's pH 6.60): 8.49
pH after a 50-fold Dilution (Meglumine 5 mM pH 9.5, into NaCl pH 4.59): 8.04
pH after a 50-fold Dilution (Meglumine 5 mM pH 9.5, into NaCl pH 6.82): 8.71
pH after a 50-fold Dilution (Meglumine 5 mM pH 10, into Hartmann's pH 6.48): 8.32
pH after a 50-fold Dilution (Meglumine 10 mM pH 9, into Hartmann's pH 6.48): 7.37
pH after a 50-fold Dilution (Meglumine 10 mM pH 9, into NaCl pH 4.59): 6.35
pH after a 50-fold Dilution (Meglumine 10 mM pH 10, into Hartmann's pH 6.48): 8.98
pH after a 50-fold Dilution (Meglumine 10 mM pH 10, into NaCl pH 6.82): 9.54
